The target of the assay is T1, Dimer of Gag-Pol polyprotein [491-589,Q496K] (Human immunodeficiency virus 1, UniProt P03369, Q496K).
T1 construct: 491-589
Description: Enzyme Inhibition Assay. As to the method: HIV-1 protease inhibitor activities were determined by the fluorescence resonance energy transfer (FRET) method. The energy transfer donor (EDANS) and acceptor (DABCYL) were labeled at two ends of peptide substrate to perform FRET. Fluorescence measurements were carried out on a fluorescence spectrophotometer. Excitation and emission wavelengths were set at 340 and 490 nm. Inhibitor binding dissociation constant Ki was obtained by nonlinear regression fitting to the plot of initial velocity as a function of inhibitor concentrations based on Morrison equation. The initial velocities were derived from the linear range of reaction curves.

Consider `COc1cccc(S(=O)(=O)N(C[C@H]2CCCO2)C[C@@H](O)[C@H](Cc2ccccc2)NC(=O)[C@@H]2CN(c3ccccc3)C(=O)O2)c1` [(5S)-N-[(1S,2R)-1-Benzyl-2-hydroxy-3-[[(3-methoxyphenyl)-sulfonyl][(R)-(tetrahydro-2-furanyl)methyl]amino]propyl]-2-oxo-3-phenyloxazolidine-5-carboxamide], for which the Ki is 42 nM.
Consider `COc1cccc(S(=O)(=O)N(C[C@H]2CCCO2)C[C@@H](O)[C@H](Cc2ccccc2)NC(=O)[C@@H]2CN(c3cccc(F)c3)C(=O)O2)c1` [(5S)-N-[(1S,2R)-1-Benzyl-2-hydroxy-3-[[(3-methoxyphenyl)-sulfonyl][(R)-(tetrahydro-2-furanyl)methyl]amino]propyl]-3-(3-fluorophenyl)-2-oxooxazolidine-5-carboxamide], for which the inhibition constant Ki stood at 150 nM. Compared with the last compound, the Ki is about 3.6-fold higher.

The values above are taken from BindingDB's records for doi:10.1021/jm060666p (University of Massachusetts Medical School, 2006).
